A word on the IC50: it is the point on the concentration scale where inhibition reaches its midpoint.

Structures can show the parent of a compound that is named as a salt. Ends that are not written are not given here.

We go through 4 compounds from patent US7083932B1, “Nucleic acid molecules encoding peptides having pronociceptive properties” (Euroscreen, s.a., priority 1995, dated 2006).

Assay [1] has as its system mice. Description: antagonism of nociceptin-induced stimulation of horizontal locomotor activity. It counts as in vivo.
The test system of assay [2] is mice. Description: hole board test. Type of assay: in vivo. The settings on record: 5 mg/kg s.c., tested 15 minutes later; saline 150±8.
A further assay deals with ORL1 receptor (Homo sapiens, UniProt P41146). Briefly: cell-based.
The next assay concerns CHO(ORL1−) cells. Type of assay: cell-based.

ORL1 receptor, sequence (P41146 whole entry): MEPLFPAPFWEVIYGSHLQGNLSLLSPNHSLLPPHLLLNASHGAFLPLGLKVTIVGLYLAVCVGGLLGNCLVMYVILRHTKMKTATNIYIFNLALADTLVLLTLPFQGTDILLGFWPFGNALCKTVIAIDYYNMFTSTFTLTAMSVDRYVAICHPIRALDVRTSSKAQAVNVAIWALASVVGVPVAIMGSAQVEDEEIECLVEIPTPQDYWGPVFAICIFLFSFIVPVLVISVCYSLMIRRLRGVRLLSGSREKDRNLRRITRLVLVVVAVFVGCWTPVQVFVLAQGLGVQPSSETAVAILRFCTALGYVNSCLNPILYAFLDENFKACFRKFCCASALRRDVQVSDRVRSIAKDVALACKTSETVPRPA

`C=CCN1CC[C@]23c4c5ccc(O)c4O[C@H]2C(=O)CC[C@@]3(O)[C@H]1C5` [Naloxone, Naloxone hydrochloride]: in the assay on mice [1] (0.0–4.5 mg/kg s.c., 10 minutes before i.c.v. nociceptin, first 10 minutes of testing), the “effect on motor-stimulant effect of 100 ng nociceptin” value was “did not suppress”.

On to `O=C(CCCN1CCC(O)(c2ccc(Cl)cc2)CC1)c1ccc(F)cc1` [haloperidol], for which the “antagonism of nociceptin stimulation of locomotor activity” value in the assay with mice [1] (increasing doses of antagonist) is listed as “antagonized”.

Take `CN1CC[C@]23c4c5ccc(O)c4O[C@H]2[C@@H](O)C=C[C@H]3[C@H]1C5` [morphin]: in the assay on mice [2], the “Number of explored holes during the 20 minutes period” value was 24±2.

For YGGFTGARKSARKLANQ [^1Tyr analogue], at ORL1 receptor, the IC50 is 1 nM and the “maximal inhibition of forskolin-induced cAMP accumulation” value was more than 90%. Further, the “activity on cyclase in wild type cells” value in the assay with CHO(ORL1−) cells was “totally inactive”.
